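Briefly, cells in 96-well plates were exposed to five compound concentrations for 48 h, and endpoints were estimated by linear interpolation. GI50 marks 50% less growth. TGI is the concentration that stops growth completely.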
Tests used:
Assay in all cases: NCI tumour cell line growth inhibition, 48 h
MDA-MB-231 breast = system: MDA-MB-231 breast
BT-549 breast = system: BT-549 breast
SR leukemia = system: SR leukemia
NCI/ADR-RES ovarian = system: NCI/ADR-RES ovarian
OVCAR-4 ovarian = system: OVCAR-4 ovarian
OVCAR-8 ovarian = system: OVCAR-8 ovarian
KM20L2 colon = system: KM20L2 colon
DMS 114 small cell lung = system: DMS 114 small cell lung
COLO 205 colon = system: COLO 205 colon
MCF7 breast = system: MCF7 breast
XF 498 CNS = system: XF 498 CNS

SMILES | TGI (MDA-MB-231 breast) | TGI (BT-549 breast) | TGI (SR leukemia) | TGI (NCI/ADR-RES ovarian) | TGI (OVCAR-4 ovarian) | TGI (OVCAR-8 ovarian) | TGI (KM20L2 colon) | TGI (DMS 114 small cell lung) | TGI (COLO 205 colon) | TGI (MCF7 breast) | TGI (XF 498 CNS) | GI50 (MDA-MB-231 breast) | GI50 (BT-549 breast) | GI50 (COLO 205 colon) | GI50 (MCF7 breast) | GI50 (SR leukemia) | GI50 (NCI/ADR-RES ovarian) | GI50 (OVCAR-4 ovarian) | GI50 (OVCAR-8 ovarian)
c1ccc2c(c1)c1ccccc1n2Cn1c2ccccc2c2ccccc21 | > 100 µM | > 100 µM | > 100 µM | > 100 µM | > 100 µM | > 100 µM |  |  |  |  |  |  |  |  |  |  |  |  | 
CCOC(=O)/C=C/c1c(C)[nH]c(=O)[nH]c1=O |  |  |  | > 250 µM | > 158 µM | > 250 µM | > 250 µM | > 250 µM | > 250 µM | > 250 µM | > 250 µM |  |  |  |  |  |  |  | 
O=C(NN1C(=O)C(Cl)C1c1cccc([N+](=O)[O-])c1)c1ccccc1O (configuration not stated) |  |  | > 100 µM |  | > 100 µM | > 100 µM | > 100 µM | > 100 µM | > 100 µM |  | > 100 µM |  |  |  |  |  |  |  | 
CCOC(=O)NC(Nc1cc(Cl)ccc1OC)(C(F)(F)F)C(F)(F)F | > 100 µM | > 100 µM | > 100 µM |  |  |  |  |  |  | > 100 µM |  |  |  |  |  |  |  |  | 
C/C(=N\NC(=S)N1CCC(N2CCCCC2)CC1)c1ccccn1 | 3.57 µM |  | 9.74 µM | 5.67 µM | 16.7 µM | 11.7 µM | 14.2 µM | 8.86 µM | 9.95 µM | 10.6 µM | 19.6 µM |  |  |  |  |  |  |  | 
O=C1CCC[C@H]2O[C@@H](COC(=O)c3ccccc3)C[C@H]2O1 | > 100 µM |  | > 100 µM | > 100 µM | > 100 µM | > 100 µM |  |  | > 100 µM | > 100 µM |  |  |  |  |  |  |  |  | 
O=C1C(CO)=C[C@H](O)[C@H]2O[C@@H]12 |  |  |  | 449 µM | 317 µM | 325 µM | > 625 µM | 296 µM | 209 µM | 271 µM | 359 µM |  |  |  |  |  |  |  | 
Cc1ccc(Cl)cc1N=NC(=O)NNc1cc(Cl)ccc1C | 40.3 µM | 43.9 µM | > 100 µM | 63.9 µM |  |  |  |  | 41 µM | 80.7 µM |  |  |  |  |  |  |  |  | 
CCOc1cc(/C=C/C(=O)C(C(=O)/C=C/c2ccc(OC(=O)CNc3nc4ccccc4[nH]3)c(OCC)c2)C(=O)CNc2nc3ccccc3[nH]2)ccc1OC(=O)CNc1nc2ccccc2[nH]1 | 7.29 µM | 3.13 µM | 2.53 µM | 74 µM | 22.7 µM |  |  |  | 4.61 µM | 3.56 µM |  | 2.39 µM | 1.45 µM | 2.08 µM | 1.06 µM | 0.788 µM | 3.39 µM | 3.39 µM | 
O=C(N/N=C\c1cccc2ccccc12)Nc1ccccc1 |  | > 100 µM | > 100 µM | > 100 µM | > 100 µM | > 100 µM |  |  | > 100 µM | > 100 µM |  |  |  |  |  |  |  |  | 
c1cc2c3c(c1)c1cc4c(cc1c[n+]3CC2)OCO4 |  |  |  | > 225 µM | 47.7 µM | 25.3 µM | 49.7 µM | 9.27 µM | 19.9 µM | 30.3 µM | 10.9 µM |  |  |  |  |  |  |  | 
COc1cc(-c2ccc(N=Nc3ccc4c(S(=O)(=O)O)cc(S(=O)(=O)O)c(N)c4c3O)c(OC)c2)ccc1N=Nc1ccc2c(S(=O)(=O)O)cc(S(=O)(=O)O)c(N)c2c1O |  |  |  | > 100 µM | > 100 µM | > 100 µM | > 100 µM | > 100 µM | > 100 µM | > 100 µM | > 100 µM |  |  |  |  |  |  |  | 
COc1cccc2c1C(=O)c1c(O)c3c(c(O)c1C2=O)C[C@@](O)(C(=O)COC(=O)c1ccccc1)C[C@@H]3OC1CC(N)C(O)C(C)O1 (some centres not stated) | 1.79 µM | 2.32 µM | 0.225 µM | 4.1 µM |  | 1.18 µM |  |  |  |  |  | 0.376 µM | 0.7 µM |  |  |  | 1.44 µM |  | 0.154 µM

Source: PubChem BioAssay (NCI)
